From patent publication US6916843B1, “Anti-inflammatory actions of cytochrome P450 expoxygenase-derived eicosanoids” (The United States of America as represented by the …, priority 1999, dated 2005)

What was measured:
VCAM-1 = VCAM-1 expression in the murine carotid artery after TNF-α; type: in vivo; conditions: mouse, intra-arterial infusion 100 ng/kg/min, TNF-α 10 μg/kg i.p., 5 hours
Method: FIG. 3A is a graph showing the expression of VCAM-1 in the murine carotid artery at 5 hours after treatment with intraperitaneal injection of TNF-α (10 μg/kg) alone or in combination with continuous intra-arterial infusion of [11,12]-EET (100 ng/kg/min). FIG. 3B is a bar graph showing the effect of [11,12]-EET on TNF-α induced mononuclear cell adhesion in the murine carotid artery. The mononuclear cells (U937) were perfused through the carotid artery at a wall shear stress of 3 dyn/cm^2. Intra-arterial infusion of vehicle (saline) or [14,15]-EET (100 ng/kg/min) had no effect. […] All experiments except the [14,15]-EET infusion were performed in duplicate.
To determine the functional relevance of EETs in vascular inflammation, we tested [11,12]-EET and its regioisomer [14,15]-EET in a recently developed in vivo model of TNF-α-induced VCAM-1 -mediated mononuclear cell adhesion in the murine carotid artery. […]
Cell rolling and adhesion were recorded on videotape using stroboscopic epifluoresence illumination with an introvital microscope (objective Zeiss 20×, 0.5 numerical aperture). […] In separate experiments, VCAM-1 expression was measured in paraffin-sections (5 μm thick) of carotid arteries harvested from mice treated in the same way. […]

VCAM-1 expression = experiment: Cell-surface enzyme immunoassay of cytokine-induced VCAM-1 expression in endothelial cells; type: cell-based, human; conditions: human endothelial cells, 1-100 nM
Method: (§1) FIG. 2 is a set of bar graphs of cell-surface enzyme immunoassays. […] The difference between treatment with TNF-α alone and in the presence of [11,12]-EET were statistically significant (*p<0.05, **p<0.01), OD, optical density. […] After stimulation with TNF-α (10 ng/ml) in the presence or absence of EET, promoter activity was determined relative to basal activity. *p<0.01 vs. TNF-α alone.
(§2) To determine the biological effects of EETs, we treated tumor necrosis factor alpha (TNF-α)-stimulated human endothelial cells with physiological relevant concentrations (1-100 nM) of [5,6]-EET, [8,9]-EET, [11,12]-EET, [14,15]-EET, [11,12]-DHET.

ICAM-1 expression = experiment: Cell-surface enzyme immunoassay of TNF-α-induced ICAM-1 expression in endothelial cells; type: cell-based, human; conditions: 100 nM, TNF-α 10 ng/ml
Method: as §1, §2

RelA = experiment: Cellular localization of RelA in TNF-α-stimulated endothelial cells; type: cell-based; conditions: co-treatment with TNF-α
Excerpt: (§3) Co-treatment with [11,12]-EET prevented the nuclear accumulation of RelA. Since the nuclear translocation of RelA requires the degradation of its endogenous cytoplasmic inhibitor, inhibitor kappa B (IκB-α), we followed the fate of IκB-α after TNF-α stimulation in the presence or absence of [11,12]-EET. Stimulation of human endothelial cells with TNF-α caused a rapid and almost complete disappearance of IκB-α which was prevented by co-treatment with [11,12]-EET, but not [14,15]-EET.

IκB-α = experiment: Fate of IκB-α after TNF-α stimulation of human endothelial cells; type: cell-based; conditions: TNF-α 10 ng/ml, 15 min; EET 100 nM
Excerpt: as §3
(§4) A set of gel shift assays was performed. […] In some assays, [11,12]-EET (100 nM) was also added directly to the IKK assay (in vitro). As a control for nonspecific phosphorylation, the assay was performed without the addition of immunoprecipitated IKK (no enzyme) or in the presence of a IκB-α mutant (ΔSer 32, Ser 36→Thr) as substrate. The assay was performed three times with similar results.
(§5) Specificity of IKB was determined by the complete absence of phosphorylation when the mutated IκB-α substrate, GST-1κB-α (Δ32,36: S→T) which cannot be phosphorylated at serine residues 32 and 36, was substituted for wild-type GST-IκB-α.

IκB kinase (IKK) = experiment: IKK activity assay with GST-IκB-α substrate, TNF-α-stimulated endothelial cells; type: biochemical, human; conditions: 100 nM, TNF-α 10 ng/ml, 15 min
Method: as §4, §5

CCCCC/C=C\C[C@H]1O[C@H]1C/C=C\C/C=C\CCCC(=O)O [[11,12]-EET]
VCAM-1 expression in carotid artery (VCAM-1): decreased
inhibition of TNF-α-induced VCAM-1 expression (rank/words) (VCAM-1 expression; TNF-α): most effective
maximal inhibition of TNF-α-induced VCAM-1 expression (VCAM-1 expression; TNF-α 10 ng/ml): 75%
inhibition of ICAM-1 expression (ICAM-1 expression): inhibited
effect on TNF-α-induced nuclear accumulation of RelA (RelA): prevented
effect on TNF-α-induced disappearance/degradation of IκB-α (IκB-α): prevented
inhibition of TNF-α-induced IKK activity (IκB kinase (IKK)): > 90%
